Results: PMC11004178, “LDL receptor-related protein 5 selectively transports unesterified polyunsaturated fatty acids to intracellular compartments” (Nature Communications, 2024)

Molecular target: T1, mTORC1 (mTOR kinase complex) (Homo sapiens, UniProt P42345)
T1 construct: mTORC1 complex immunoprecipitated from HEK293T cells expressing HA-tagged Raptor; with Raptor (HA-tagged; mTORC1 complex)
Experiment: in vitro kinase assay, immunoprecipitated mTORC1, GST-4EBP1 substrate, […] EPA (single concentration)
Format: biochemical

`CC/C=C\C/C=C\C/C=C\C/C=C\C/C=C\CCCC(=O)O` [EPA, eicosapentaenoic acid] was tested, and the “in vitro kinase assay, immunoprecipitated mTORC1, GST-4EBP1 substrate, 100 μM EP” value was “The addition of EPA, but not EPA-EE, caused significant inhibition of 4EBP1 phosphorylation by immunoprecipitated mTORC1”.
